From patent publication US7632506B2, “Identification of new NY-ESO-1 epitopes recognized by CD4+ T-cells” (Ludwig Institute for Cancer Research, priority 2005, dated 2009)

Experiments:
[1] = system: CD4+ T cell clones NW2337-CD4-1 and NW2337-CD4-10; assay: 51Cr release assay with peptide-pulsed EBV-B target cells; type: cell-based, human
Method: In these experiments, exemplary clones NY-ESO-1 p49-66 specific CD4^+ T cell clone NW2337-CD4-1 and NY-ESO-1 p55-72 specific CD4^+ T cell clone NW2337-CD4-10 were characterized in ^51Chromium (^51Cr) release assays using peptides overlapping the sequence of each stimulation peptide. Standard ^51Cr release assay methods were used. Briefly, autologous EBV B cell target cells were labeled with 100 μCi Na2^51CrO4 for 2 hours, and pulsed with 18 mer or 20 mer NY-ESO-1 peptides (10 μg/ml) for 1 hour. Then, 1×10^3 target cells/well were incubated in 96 V- bottom microwell plates with effector cells at different E/T ratios for 4 h at 37° C. ^51Cr release was measured in the supernatant and the specific cytotoxicity was calculated using the standard methods. Polyclonal T-cell populations were preincubated with unlabeled K562 cells as competitors at a concentration of 40:1 in order to block non-specific effector reactions.
These experiments confirmed recognition of naturally presented NY-ESO-1 epitopes by the CD4+ T-cell clones.

[2] = system: CD4+ T cell clones NW2337-CD4-1 and NW2337-CD4-10; assay: Peptide titration ELISPOT assay with overlapping NY-ESO-1 peptides; type: cell-based, human; settings: peptide 10 μM to 0.1 nM pulsed onto autologous EBV-B-cells
Method: The CD4^+ T cells were restimulated weekly with 1 μg/ml of the peptide being used. On day 12, each CD4^+ culture was assayed for NY-ESO-1 peptide recognition, using the ELISPOT assay of lager, et al., Proc. Natl. Acad. Sci. USA, 97(9):4760-4765 (2000), incorporated by reference. To elaborate on this procedure, flat-bottomed, 96-well nitrocellulose plates were coated with 5 μg/ml of anti-interferon-gamma antibody and incubated overnight at 4° C. After washing with PBS, plates were blocked with 10% human serum (HS) for 1 hour at 37° C. Depending on the effector:target ratio used, various numbers of presensitized CD4^+ T-cells were added to each well along with 5×10^4 autologous peptide pulsed EBV transfected B cells (“EBV-B cells”) serving as target cells and incubated for 16 hours at 37° C. in TCM without IL-2. Plates were then washed extensively (6 times with a solution of 0.05% Tween 20/PBS), and biotinylated anti-interferon-gamma detection antibody was added at a concentration of 0.5 μg/ml. After incubation for 2 h at 37° C., plates were washed and incubated with ABC-AP Vectastain for 1 hour. Plates were washed again and developed with substrate (BCIP/NPT) until blue spots were visible. The number of blue spots/well represented the proportion of NY-ESO-1 specific CD4^+ T-cells/well was finally counted under the microscope.
To further identify the exact epitope required for CD4^+ T cell recognition by these two CD4^+ T cell clones, a peptide titration assay was performed using overlapping NY-ESO-1 peptides (FIG. 2) at concentrations between 10 μM and 0.1 nM, pulsed onto autologous EBV-B-cells and tested in ELISPOT assays (FIG. 3).

[3] = molecular target: T1, HLA-DQB1 03011 (Homo sapiens, UniProt P01909+P01920); assay: ELISPOT with peptide pulsed allogeneic EBV-B-cells of known HLA class II type (HLA restriction); type: cell-based
T1 construct: peptide pulsed allogeneic EBV-B-cells with known HLA class II types as stimulator cells; endogenous in cells; host or cells: allogeneic patient-derived EBV-transformed B-cell lines (NW-2078, NW-2081, NW-2395, NW-2234, NW-2337, NW-1100, MZ-1257)
T1 sequence (P01920 33-261, other chains not shown): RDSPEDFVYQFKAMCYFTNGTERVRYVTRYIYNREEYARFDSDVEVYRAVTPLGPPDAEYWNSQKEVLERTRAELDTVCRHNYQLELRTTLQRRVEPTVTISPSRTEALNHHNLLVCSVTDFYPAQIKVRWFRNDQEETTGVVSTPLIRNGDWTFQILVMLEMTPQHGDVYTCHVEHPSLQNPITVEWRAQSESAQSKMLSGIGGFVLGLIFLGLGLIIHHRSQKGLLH
Method: In order to determine the HLA molecule to which the novel NY-ESO-1 peptides described above bind, the NW2337 CD4^+ T-cell clones NW2337-CD4-1 and NW2337-CD4-10, were tested in ELISPOT assays using a range of peptide pulsed allogeneic EBV-B-cells with known HLA class II types as stimulator cells as indicated in the following Table. The EBV-B-cell lines were HLA typed using standard methods as described above.
The NW2337-CD4-1 clone recognized allogenic peptide pulsed EBV-B cells from patients NW-2078, NW-2081, NW-2395, NW-2234, NW-2337, NW-1100 and MZ-1257. The allogenic EBV-B cells were recognized by the T cells when pulsed exogenously with either the NY-ESO-1 p49-66 or p55-72 as observed with autologous EBV-B cells described above. […] None of the EBV-B-cells lines that were not recognized by the T cells expressed this MHC allele. […] Again the NY-ESO-1 positive MZ-1257 EBV-B-cell line was recognized with or without exogenous peptide.

[4] = system: NW2337 CD4+ T cells; assay: Cytokine ELISPOT assays (IFNγ, TNFα, IL4, IL10) of NW2337 CD4+ T cells; type: cell-based, human
Text: All ELISPOT assay described, supra were designed to detect IFN-γ secretion by the T cell clones following specific antigen stimulation. To determine the phenotype of the NY-ESO-1 specific CD4^+ T cell clones from patient NW2337, additional ELISPOT assays were designed to detect additional cytokines.
The NW2337 CD4^+ T cells were stimulated with either NY-ESO-1 p49-66 and p55-72 peptides and T cells secretion of IFNγ, TNFα, IL4 and IL10measured by ELISPOT assay. […] IL4 and IL10 was not secreted by any of the NY-ESO-1 specific CD4^+ T-cell clones tested following stimulation with NY-ESO-1 p49-66 and p55-72 peptides.

[5] = system: CD8+ T-cells; assay: ELISPOT of CD8+ T-cells presensitized with Ad2/ESO infected PBMC; type: cell-based, human
Method: To examine the possibility that one of the novel MHC class II epitopes described in this study may also represent an MHC class I binding peptide epitope, CD8^+ T-cells from the patients described above, were presensitized with autologous CD4^−/CD8^− PBMC infected with the recombinant adenovirus Ad2/ESO. Responder T-cells were tested in ELISPOT assays for recognition of autologous APC's pulsed with the 28 overlapping 18 mer peptides described in Table 2.

[6] = system: CD4+ T cells; assay: IFN-γ ELISPOT of CD4+ T cells presensitized with overlapping NY-ESO-1 18 mer peptides; type: cell-based, human; settings: patient NW2337, limiting dilution

Q: For “P55-72: synthetic 18 mer peptide, amino acids 55-72 of NY-ESO-1 (GPGGGAPRGPHGGAASGL; UniProt P78358 55-72, looked up, fragment) [Peptide P55-72]”, which “lysis of peptide pulsed autologous NW-2337-EBV B-cell lines by clones NW-2337-CD4-3 and -10” value [1] is on record?
A: efficiently lysed

Q: What about the “recognition by clone NW2337-CD4-1” value ([1]; autologous EBV B cells pulsed with peptide 10 μg/ml, clone generated with p49-66) of the same substance?
A: crossreacted

Q: And the “recognition by clone NW2337-CD4-10” value ([1]; autologous EBV B cells pulsed with peptide 10 μg/ml, clone generated with p55-72)?
A: recognized

Q: And the “recognition by clone NW2337-CD4-1” value [2]?
A: recognized

Q: And the “recognition by clone NW2337-CD4-10” value [2]?
A: able to recognize

Q: And the “MHC class II allele presenting the peptide to NW2337-CD4-10 T cells” value ([3]; only HLA-DQB1 03011 expressing allogenic EBV-B cell lines recognized)?
A: HLA-DQB1 03011

Q: What about the “MHC class II allele presenting the peptide to NW2337-CD4-1 T cells” value ([3]; only shared allele of the recognized peptide pulsed allogenic EBV-B cell lines) of the same substance?
A: HLA-DQB1 03011

Q: What about the “IFN-γ secretion by stimulated T cell clones” value [4] of the same substance?
A: produced

Q: And the “IL4 secretion by stimulated T cell clones” value [4]?
A: not secreted

Q: And the “IL10 secretion by stimulated T cell clones” value [4]?
A: not secreted

Q: And the “TNF-α secretion by stimulated T cell clones” value [4]?
A: produced

Q: What about the “NW1454 CD8+ T-cell recognition of peptide pulsed T2-A3 and HLA-A3 expressing NW115 EBV-B-cell target cells” value [5] of the same substance?
A: recognition

Q: What about the “recognition by CD8+ T-cells” value ([5]; CD8+ T-cells from patient NW1231, NW1454 and NW2427, autologous APC's pulsed with peptide) of the same substance?
A: observed

Q: And the “HLA class I molecule presenting the peptide” value ([5]; only shared HLA class I allele of the three patients)?
A: HLA-A3

Q: What about the “CD4+ T-cell clones generated by stimulation with peptide” value [6] of the same substance?
A: 53
